Test results as given in paper PMC10150366, “Discovery of an In Vivo Chemical Probe for BCL6 Inhibition by Optimization of Tricyclic Quinolinones” (Journal of Medicinal Chemistry, 2023).
Values after ≈ are worked out from the molar mass of the structure shown. Values joined by “and” are separate entries in the source; they are usually repeats but may differ in a detail not shown here. Equal entries are not always repeated. Where two headings read alike, the source gives them in different places.

Legend:
[1] = test system: Caco-2 human colon carcinoma cell line; conditions: cited from earlier work; for CACO-2 (ER): efflux ratio
[2] = cited from earlier work
human BCL6 BTB domain = human BCL6 BTB domain (Homo sapiens, UniProt P41182); assay: BCL6 TR-FRET assay; format: binding; conditions: for IC90: read-out: BCL6 TR-FRET IC90 Geometric Mean
Protocol: 1. Supplementary experimental: protein production, purification and crystallography 1.1 BCL6 constructs used for assays and crystallography […]
cleavage site. For the TR-FRET assay, the Trx-6His-HRV3C-BCL6 protein construct was used without cleaving the tag, as a 6His was needed to bind to the anti-6His-Terbium antibody. […]
For both plasmid constructs described above, transformed BL21-AI E. coli cells were grown in LB media […]
Expression was carried out at 18 °C for 18 hours. Cells were harvested by centrifugation (5500 g for 30 minutes at 4 °C) and stored at -80 °C.
Cells were re-suspended in a buffer composed of 20 mM Tris pH 8, 250 mM NaCl, 1 mM MgCl2, 0.5 mM […]
lysed by sonication followed by centrifugation at 21,000 g for 45 minutes at 4 °C. […]
ResourceQ and gel filtration using a HiLoad 26/60 Superdex75 column in a buffer containing 20 mM HEPES […]
The final protein was assessed for purity and molar mass by SDS-PAGE and high-resolution mass spectrometry, respectively.
For the uncleaved Trx-6His-HRV3C-BCL6 protein construct to be used in TR-FRET, the protein was directly eluted from the HisTrap FF column without HRV-3C treatment, and submitted to Superdex75 gel filtration […]
Test compounds in DMSO or DMSO alone […]
concentration in 0.7% v/v DMSO final. […]

BCL6 = conditions: OCI-Ly1 cells, cited from earlier work; for DC50: read-out: MSD degrader assay [OCI-Ly1] DC50
[3] = molecular target: T1, BCL6-SMRT (NCOR2) corepressor protein-protein interaction (Homo sapiens, UniProt P41182); assay: NanoBRET cellular assay (HEK293T); format: cell-based
T1 construct: DNA encoding full length BCL6 and SMRT; expressed in transfected cells; host or cells: HEK293T
Protocol: Test compounds in DMSO or DMSO alone
concentration in 0.7% v/v DMSO final.
(also called NCOR2) corepressor protein-protein interaction. DNA encoding full length BCL6 and SMRT
fusion proteins BCL6-nanoLuc and SMRT-HaloTag, respectively. HEK293T cells were plated […] in T75
At the time of assay, compounds
dispensing (Labcyte Inc.). Frozen transfected HEK293T cells were thawed, centrifuged and freezing
DMSO final concentration.
After a short centrifugation the
(1st emission filter) / 450-80 nm (2nd emission filter). The % inhibition at each test concentration was
sigmoidal four-parameter logistic fit equation. […]

[4] = NMR aqueous solubility assay; conditions: HEPES buffer, aqueous with cosolvent or surfactant or cyclodextrin
Protocol: Supplementary experimental: physicochemical assays
0.5 mM TCEP, 10% D2O) was pipetted into the same well and mixed by up-down pipetting 3 times to create a 0.5 mM solution or suspension containing 5% DMSO. It was then separated by centrifugation (1000 rpm
The plate was then sealed and incubated at room temperature for 20 hours,
165 µL of the supernatant was transferred to a 3 mm NMR tube (Bruker, Part No. Z112272) using liquid handler SamplePro Tube SJ S (Bruker). The concentration of the solubilized compound in solubility sample
PBS (pH 7.4) with 1% DMSO-d6).
The detail of the NMR method is as following: NMR data was collected on a Bruker Avance Neo 600 spectrometer equipped with a 5 mm TCI-CryoProbe.
The sweep width was 6.2 ppm with O1P set to 8.8 ppm, and the FID contained 16k time-domain data points. Relaxation delay was set to 20 sec. Water signal was suppressed.

[5] = Microsomal clearance, mouse liver microsomes; conditions: for CLint H/M/R: one value given, mouse microsomal clearance per text
[6] = test system: Caco-2 human colon carcinoma cell line; conditions: pH 7.4
Protocol: Caco-2 apparent permeability (Papp) was determined in the Caco-2 human colon carcinoma cell line. Cells
were maintained in DMEM with 10% fetal bovine serum, penicillin, and streptomycin in a humidified
Cells were then plated onto a cell culture assembly plate
(Millipore, UK), and monolayer confluency was tested using a TEER electrode prior to the assay. Media
specified), 1% DMSO) in the appropriate apical and basal donor wells. HBSS buffer alone was placed in
acceptor wells. The Caco-2 plate was incubated for 2 h at 37 °C. Samples from the apical and basolateral
chambers were analyzed using a Waters (Milford, MA, US) TQ-S LC-MS/MS system.
Apparent permeability (Papp) was determined as follows:
𝐏𝐚𝐩𝐩 = 𝐀 (𝐜𝐦𝟐) × 𝐂 (𝛍𝐌) × 𝐑𝐚𝐭𝐞 𝐨𝐟 𝐃𝐢𝐟𝐟𝐮𝐬𝐢𝐨𝐧 (𝛍𝐌.𝐬𝐞𝐜 )
Where Vr = volume of receptical
A = surface area of monolayer
C0 = Initial compound concentration in donor

[7] = logD7.4 assay (Chrom log D method); format: physicochemical
Protocol: Calibration, validation and in-house compounds were prepared at 1mM in 10% DMSO / 90% Trizma solution (100mM Trizma in 75/25 methanol/water). 3 µL standard injections (with needle wash) of all calibration, validation and in-house samples were made onto a Phenomenex Luna C8 column (3µm, 100 x 4.6 mm, 100A, Phenomenex, Torrence, USA). Chromatographic separation at 30°C was carried out using
2 mL/min. The gradient was held at 0:100 water:organic for 0.8 minutes, then returned to the starting conditions of 95:5 water:organic for 0.2 minutes. The column was re-equilibrated for 5 minutes at the
starting conditions prior to the next injection.
Raw data was processed using Agilent Chemstation Rev.C.01.04.

[8] = supplement, read-out: BCL6 NanoBRET IC50 Geometric Mean
[9] = HEK-293T, Table S2, read-out: BCL6 NanoBRET IC90 individual replicates
[10] = geometric mean of at least three replicates, read-out: NanoBRET IC50
[11] = single replicates, Table S2, read-out: BCL6 NanoBRET IC50 individual replicates
[12] = geometric mean of at least three replicates, read-out: BCL6 TR-FRET IC50
[13] = supplement, read-out: BCL6 TR-FRET IC50 Geometric Mean
[14] = HEK-293T, Table S2, several values per compound, read-out: BCL6 NanoBRET IC90 Geometric Mean
[15] = Table S2, several values per compound, read-out: BCL6 NanoBRET IC90 Geometric Mean
[16] = Table S1, read-out: BCL6 TR-FRET pIC50 mean (converted)
[17] = Table S2, read-out: BCL6 NanoBRET IC90 individual replicates

Row | Compound | IC50 [3, 8] | IC90 [3, 9] | BCL6 NanoBRET pIC50 mean ([3]; Table S2) | IC50 [3, 10] | IC50 [3, 11] | IC90 (human BCL6 BTB domain; Table S1) | IC50 (human BCL6 BTB domain; [12]) | BCL6 TR-FRET pIC50 mean (human BCL6 BTB domain; Table S1) | also measured
1 | C[C@H]1C[C@@H](O)CN(c2ncc(Cl)c(Nc3ccc4c(c3)c3c(c(=O)n4C)OCC(F)(F)[C@H](C4CC4)N3)n2)C1 [CCT373566] | – | – | – | – | – | – | – | – | CACO-2 A-B [1]: 3.2e-06 cm/s; CACO-2 (ER) [1]: 13; Aq. Sol. [2]: 10 µM; IC50 (human BCL6 BTB domain; read-out: BCL6 TR-FRET IC50 Geometric Mean): 2.2 nM; MSD degrader assay [OCI-Ly1] Dmax (BCL6): 92%; DC50 (BCL6): 0.7 nM
2 | C[C@@H]1C[C@H](O)CN(c2ncc(Cl)c(Nc3ccc4c(c3)c3c(c(=O)n4C)OCC(F)(F)[C@H](C4CC4)N3)n2)C1 [CCT373567] | 25.9 nM | – | – | – | – | – | – | – | CACO-2 A-B [1]: < 3e-06 cm/s; CACO-2 (ER) [1]: > 16; Aq. Sol. [2]: 8 µM; IC50 (human BCL6 BTB domain; BCL6 TR-FRET IC50 Geometric Mean): 2.8 nM; DC50 (BCL6): > 10000 nM
3 | Cn1c(=O)c2c(c3cc(Nc4nc(N5CC(F)(F)C5)ncc4Cl)ccc31)N[C@@H](C1CC1)C(F)(F)CO2 [compound 11, (S)-10-((5-Chloro-2-(3,3-difluoroazetidin-1-yl)pyrimidin-4-yl)amino)-2-cyclopropyl-3,3-difluoro-7-methyl-1,2,3,4-tetrahydro-[1,4]oxazepino[2,3-c]quinolin-6(7H)-one] | – | 175 nM | 7.5086 | 31 nM | 61.1 nM and 18.2 nM and 26.8 nM | 85.4 nM | 10 nM | – | IC90 ([3]; HEK-293T, geometric mean of at least three replicates, read-out: NanoBRET IC90): 175 nM; IC50 (human BCL6 BTB domain; [13]): 10.3 nM
4 | Cn1c(=O)c2c(c3cc(Nc4nc(N5CC(C#N)C5)ncc4Cl)ccc31)N[C@@H](C1CC1)C(F)(F)CO2 [compound 12, (S)-1-(5-Chloro-4-((2-cyclopropyl-3,3-difluoro-7-methyl-6-oxo-1,2,3,4,6,7-hexahydro-[1,4]oxazepino[2,3-c]quinolin-10-yl)amino)pyrimidin-2-yl)azetidine-3-carbonitrile] | 54.7 nM | 385 nM | 7.2623 | 55 nM | 73.6 nM and 63.9 nM and 34.7 nM | 46.6 nM | 5 nM | 8.3025 | IC90 [3, 14]: 532 nM; IC90 [3, 15]: 398 nM and 270 nM
5 | Cn1c(=O)c2c(c3cc(Nc4nc(N5CC(F)C5)ncc4Cl)ccc31)N[C@@H](C1CC1)C(F)(F)CO2 [compound 13, (S)-10-((5-Chloro-2-(3-fluoroazetidin-1-yl)pyrimidin-4-yl)amino)-2-cyclopropyl-3,3-difluoro-7-methyl-1,2,3,4-tetrahydro-[1,4]oxazepino[2,3-c]quinolin-6(7H)-one] | – | 444 nM | – | 40 nM | 56.7 nM and 28.4 nM and 87.3 nM | 50.2 nM | 5.7 nM | – | IC50 ([3]; Table S2, read-out: BCL6 NanoBRET pIC50 mean (converted)): 52 nM; IC50 (human BCL6 BTB domain; [16]): 6.2 nM
6 | Cn1c(=O)c2c(c3cc(Nc4ccnc(Cl)c4C#N)ccc31)N[C@@H](C1CC1)C(F)(F)CO2 [compound 14] | 11.7 nM | 124 nM | 7.9327 | – | 14.7 nM and 10.4 nM (2×) | 30.1 nM | 4.8 nM | – | IC50 (human BCL6 BTB domain; [16]): 3.95 nM
7 | Cn1c(=O)c2c(c3cc(Nc4ccnc(Cl)c4Cl)ccc31)N[C@@H](C1CC1)C(F)(F)CO2 [compound 15, (S)-2-Cyclopropyl-10-((2,3-dichloropyridin-4-yl)amino)-3,3-difluoro-7-methyl-1,2,3,4-tetrahydro-[1,4]oxazepino[2,3-c]quinolin-6(7H)-one] | 68.9 nM | 796 nM | 7.1618 | 68 nM | 106 nM and 43.5 nM and 71 nM | 109 nM | 13 nM | 7.873 | solubility kinetic at 20 h [4]: 6 µM (≈ 2.8 µg/mL); microsomal CLint at 0.5 h, 1 µM ([5]; female, CD1, mouse, liver microsomes, pH 7.4): 24 µL/min/mg; decrease in cellular potency compared to CCT372064 ([3]; NanoBRET): 5 fold; Papp A→B [6]: 9.1 ×10⁻⁶ cm/s; efflux ratio [6]: 2.9; chromatographic logD ([7]; pH 7.4, read-out: Measured logD7.4): 3.2; IC50 (human BCL6 BTB domain; [13]): 13.4 nM
8 | Cc1nccc(Nc2ccc3c(c2)c2c(c(=O)n3C)OCC(F)(F)[C@H](C3CC3)N2)c1Cl [compound 16, (S)-10-((3-chloro-2-methylpyridin-4-yl)amino)-2-cyclopropyl-3,3-difluoro-7-methyl-1,2,3,4-tetrahydro-[1,4]oxazepino[2,3-c]quinolin-6(7H)-one] | 129 nM | 639 nM | 6.8907 | – | 129 nM | 158 nM | 18.5 nM | 7.7332 | IC90 [3, 14]: 639 nM
9 | Cn1c(=O)c2c(c3cc(Nc4ccnc(Cl)c4F)ccc31)N[C@@H](C1CC1)C(F)(F)CO2 [compound 18, (S)-10-((2-chloro-3-fluoropyridin-4-yl)amino)-2-cyclopropyl-3,3-difluoro-7-methyl-1,2,3,4-tetrahydro-[1,4]oxazepino[2,3-c]quinolin-6(7H)-one] | 108 nM | 616 nM | 6.9685 | 108 nM | 99.9 nM and 125 nM and 99.5 nM | 201 nM | 21 nM | 7.6837 | IC90 [3, 14]: 625 nM; IC90 [3, 15]: 511 nM and 732 nM; IC50 (human BCL6 BTB domain; [13]): 20.7 nM
10 | (2S)-10-((2-(3-acetyl-3,8-diazabicyclo[3.2.1]octan-8-yl)-5-chloropyrimidin-4-yl)amino)-2-cyclopropyl-3,3-difluoro-7-methyl-1,2,3,4-tetrahydro-[1,4]oxazepino[2,3-c]quinolin-6(7H)-one [compound 7] | – | – | 7.3871 | 41 nM | 28.2 nM and 47.9 nM and 51.1 nM | 13.7 nM | 1.9 nM | 8.728 | CLint H/M/R [5]: 50 μLmin^-1mg^-1; IC90 [3, 17]: 284 nM; Measured logD7.4 [7]: 2.5
11 | (2S)-10-((2-(8-Acetyl-3,8-diazabicyclo[3.2.1]octan-3-yl)-5-chloropyrimidin-4-yl)amino)-2-cyclopropyl-3,3-difluoro-7-methyl-1,2,3,4-tetrahydro-[1,4]oxazepino[2,3-c]quinolin-6(7H)-one [compound 6] | – | – | 7.57 | 26.9 nM | 27 nM and 30 nM and 24.1 nM | 4.6 nM | 0.9 nM | 9.0422 | CLint H/M/R [5]: 214 μLmin^-1mg^-1; IC90 [3, 15]: 189 nM and 229 nM and 239 nM; IC90 [3, 17]: 218 nM
